Test results published in patent US11364280B2, “Method for blocking stress-induced tumor progression” (Taipei Veterans General Hospital, priority 2018, dated 2022).

Key:
[1] = test system: 05 MG/MSI1-wt xenografts; test: Cisplatin treatment of subcutaneous xenografts overexpressing MSI1-wt; type: in vivo, mice; conditions: 477.437 mm^3 without cisplatin
Protocol: Magnifying power: 200× (top) and 600× (bottom). Quantitation of cells expressing cytoplasmic or nuclear MSI1 is shown in the bar graph on the right. FIG. 1B 05 MG cells pre-treated with or without nuclear export inhibitor leptomycinB (LMB) (10 ng/mL, 2 h) under normoxia or hypoxia conditions for 24 hr were subjected to anti-MSI1 (green) immunostaining and DAPI (blue) nuclear counterstaining. Images were acquired from Carl Zeiss confocal microscope system. The intensity of green fluorescence in nuclear and cytosol was quantified and shown as relative percentage in the graph at the right. […] FIG. 1D provides a schematic showing the mutation sites in the NLS (orange) and NES (red) of human MSI1. All constructs were sub-cloned into p-3×Flag-Myc-CMV expression vector. […] Images were acquired from Carl Zeiss confocal microscope system, and the quantification of fluorescent intensity in the nuclear and cytosolic compartments was shown as relative percentage in the graph at the left. […] Tumor size was measure with a caliper at the indicated time points. […] Images were acquired from Carl Zeiss confocal microscope system. […] The tumor size was measured with a caliper at the indicated time points. […]
All procedures involving animals were performed in accordance with the institutional animal welfare guidelines of Taipei Veterans General Hospital. […] Tumor size was measured with calipers^38. […]

[2] = molecular target: MSI1/AGO2 interaction (Homo sapiens, UniProt Q9UKV8); test: Split Gaussia luciferase reconstitution reporter assay; type: cell-based; parameters: expressed in transfected cells; lysates used for the in vitro read-out; conditions: in the presence of cisplatin, IVIS
MSI1/AGO2 interaction, sequence (Q9UKV8 whole entry): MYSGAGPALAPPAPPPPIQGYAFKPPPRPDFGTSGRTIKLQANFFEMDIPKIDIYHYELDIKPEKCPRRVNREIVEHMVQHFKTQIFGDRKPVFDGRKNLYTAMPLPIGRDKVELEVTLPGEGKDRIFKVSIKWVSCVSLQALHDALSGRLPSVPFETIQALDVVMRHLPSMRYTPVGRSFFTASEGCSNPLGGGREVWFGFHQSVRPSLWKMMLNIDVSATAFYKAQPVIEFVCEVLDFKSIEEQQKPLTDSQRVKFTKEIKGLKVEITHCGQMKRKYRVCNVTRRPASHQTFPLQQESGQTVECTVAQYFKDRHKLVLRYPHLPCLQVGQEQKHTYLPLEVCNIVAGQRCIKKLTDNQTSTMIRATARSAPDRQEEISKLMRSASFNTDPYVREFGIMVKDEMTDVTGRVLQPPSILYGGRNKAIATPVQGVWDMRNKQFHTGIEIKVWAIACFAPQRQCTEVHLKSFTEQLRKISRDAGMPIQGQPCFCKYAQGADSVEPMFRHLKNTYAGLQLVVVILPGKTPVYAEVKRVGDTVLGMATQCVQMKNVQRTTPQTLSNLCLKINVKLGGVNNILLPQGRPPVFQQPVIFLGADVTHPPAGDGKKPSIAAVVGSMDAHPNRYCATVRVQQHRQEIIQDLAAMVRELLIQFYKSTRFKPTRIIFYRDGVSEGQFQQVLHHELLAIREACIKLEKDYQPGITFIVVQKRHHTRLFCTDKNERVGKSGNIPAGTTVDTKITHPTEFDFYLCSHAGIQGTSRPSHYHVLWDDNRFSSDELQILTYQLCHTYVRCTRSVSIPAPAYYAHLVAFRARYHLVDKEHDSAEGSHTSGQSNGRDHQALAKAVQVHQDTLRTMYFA
Protocol: The relative orientation of peptide-binding site and AGO2 pocket was depicted. […] The recombinant AGO2 protein was immobilized on CM5 chip and incubated with a serial dilution (from 625 to 10000 nM) of the two peptides, respectively. The association and dissociation between TAT-11, TAT-26 and immobilized AGO2 were tested by SPR (top). The association rate constant (Ka), dissociation rate constant (Kd), and equilibrium dissociation constant (KD) were calculated and presented in the chart (bottom).
FIG. 14A provides schematic presentation of the constructs of full-length, C-terminus, and N-terminus of MSI1 as well as wild-type AGO2 for purifying recombinant proteins. FIG. 14B provides pull-down assay with recombinant MSI1 and AGO2 proteins showing that the C-terminus of MSI1 is essential for the direct MSI1/AGO2 interaction. […] FIG. 14D provides the schematic illustration of the split luciferase reconstitution imaging system to real-time monitor the interaction between MSI1 and AGO2.
To use Gaussia luciferase (Gluc) for detecting protein-protein interaction, we split Gaussia luciferase into NGluc (N-terminal Gluc, 106 a.a.) and CGluc (C-terminal Glue. 79 a.a.)^53,54. The two fragments were amplified by polymerase chain reaction (PCR) and subjected to construct fusion protein with MSI1 and AGO2 by the pcDNA 3.1 and pCMV backbone, respectively. Each fusion protein contains a flexible linker (GGGGS)2 between the protein and polypeptides of split luciferase^55,56. Stable cell lines were obtained by stable transfection of both fusion protein expressive plasmids in 05 MG GBM cell line with Hygromycin B (Sigma Aldrich Co., St. Louis, […]., USA) and G418 sulfate (Merck Co., Berlin, Germany). […] The bioluminescent signals were acquired by Wallac 1420 Victor^2 Microplate Reader (Perkin Elmer, Waltham. Mass., USA) equipped with auto-dispenser to avoid rapid decay of GLuc. […] The region of interests (ROI) was automatically chosen by the Living Image 4.2 software and quantified as photon flux in a certain area per second (photons/s/cm^2).

[3] = test system: MSI1 translocation into the cytosol in 05 MG cells; test: MSI1 subcellular translocation (immunostaining, fractionation immunoblot); type: cell-based, human; conditions: cisplatin 30 μM, 24 hours
Protocol: Magnifying power: 200× (top) and 600× (bottom). Quantitation of cells expressing cytoplasmic or nuclear MSI1 is shown in the bar graph on the right. FIG. 1B 05 MG cells pre-treated with or without nuclear export inhibitor leptomycinB (LMB) (10 ng/mL, 2 h) under normoxia or hypoxia conditions for 24 hr were subjected to anti-MSI1 (green) immunostaining and DAPI (blue) nuclear counterstaining. Images were acquired from Carl Zeiss confocal microscope system. The intensity of green fluorescence in nuclear and cytosol was quantified and shown as relative percentage in the graph at the right. […] FIG. 1D provides a schematic showing the mutation sites in the NLS (orange) and NES (red) of human MSI1. All constructs were sub-cloned into p-3×Flag-Myc-CMV expression vector. […] Images were acquired from Carl Zeiss confocal microscope system, and the quantification of fluorescent intensity in the nuclear and cytosolic compartments was shown as relative percentage in the graph at the left. […] Tumor size was measure with a caliper at the indicated time points. […] The tumor size was measured with a caliper at the indicated time points. […]
The ratio of MSI1 expression in each group was presented in the graph. […] Hypoxia-induced apoptosis was withdrawn by the over-expression of wild-type MSI1 but not in mutant MSI1 groups determined by annexin V staining, MTT assay, and colony forming assay. […]

N.N.[Cl][Pt][Cl] [cisplatin]
tumor volume at day 22 [1]: 774.365 mm^3 | bioluminescent signal of split Gaussia luciferase [2]: increase of the bioluminescent signal | translocation of MSI1 in 05 MG cells [3]: induced
